Measured values as given in patent US10597388B2, “Pyridazinone herbicides” (FMC CORPORATION, priority 2014, dated 2020).

How the values were obtained:
Test in all cases: Test D controlled growth environment herbicide test, pre- and postemergence
Type in all cases: in vivo
[1] = tested on: chamomile (scentless chamomile, Matricaria inodora)
Method in brief: (§1)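 Species sown in silt loam and sprayed preemergence, or grown in peat-based medium to 2–18 cm (1- to 4-leaf stage) and sprayed postemergence, with compounds in non-phytotoxic solvent plus surfactant. Visual injury scored versus controls after 14–21 d in a controlled environment, 0 (no effect) to 100 (complete control).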

[2] = tested on: oilseed rape (Brassica napus)
Method in brief: as §1

[3] = tested on: galium (catchweed bedstraw, Galium aparine)
Method in brief: as §1

[4] = tested on: lambsquarters (Chenopodium album)
Method in brief: as §1

[5] = tested on: blackgrass (Alopecurus myosuroides)
Method in brief: as §1

[6] = tested on: buckwheat, wild (wild buckwheat, Polygonum convolvulus)
Method in brief: as §1

kochia (Kochia scoparia) = tested on: kochia (Kochia scoparia)
Method in brief: as §1

[7] = tested on: Russian thistle (Salsola kali)
Method in brief: as §1

[8] = tested on: pigweed (Amaranthus retroflexus)
Method in brief: as §1

[9] = tested on: oat, wild (wild oat, Avena fatua)
Method in brief: as §1

[10] = tested on: field violet (Viola arvensis)
Method in brief: as §1

[11] = tested on: bromegrass, downy (downy bromegrass, Bromus tectorum)
Method in brief: as §1

[12] = tested on: speedwell (bird's-eye speedwell, Veronica persica)
Method in brief: as §1

[13] = Postemergence, 31 g ai/ha, scale 0 to 100 (0 no effect, 100 complete control)
[14] = Postemergence, 125 g ai/ha, visual rating on scale 0 (no effect) to 100 (complete control), 14 to 21 d
[15] = Postemergence, 250 g ai/ha, scale 0 to 100 (0 no effect, 100 complete control)
[16] = Preemergence, 62 g ai/ha, scale 0 to 100 (0 no effect, 100 complete control)
[17] = Preemergence, 125 g ai/ha, scale 0 to 100 (0 no effect, 100 complete control)
[18] = Preemergence, 250 g ai/ha, scale 0 to 100 (0 no effect, 100 complete control)
[19] = postemergence, 62 g ai/ha, scale 0 to 100, 0 no effect, 100 complete control

Cc1ccc2ccccc2c1-c1c(O)c(C)nn(C)c1=O [Compound 59]
50: Plant response rating, Oilseed Rape [2, 17] | Plant response rating, Russian Thistle [7, 16]
98: Plant response rating, Oat, Wild [9, 15]
85: Plant response rating, Chamomile [1, 14] | Plant response rating, Oilseed Rape [2, 14] | Plant response rating, Lambsquarters [4, 19] | Plant response rating, Blackgrass [5, 14] | Plant response rating, Blackgrass [5, 15] | Plant response rating (scale of 0 to 100), Blackgrass ([5]; Preemergence, 31 g ai/ha) | Plant response rating, Russian Thistle [7, 14] | Plant response rating, Russian Thistle [7, 15] | Plant response rating, Pigweed [8, 19] | Plant response rating, Bromegrass, Downy [11, 15] | Plant response rating, Bromegrass, Downy [11, 16]
70: Plant response rating, Oilseed Rape [2, 19] | Blackgrass plant response rating [5, 13] | Plant response rating, Bromegrass, Downy [11, 14] | Plant response rating, Bromegrass, Downy [11, 19]
80: Chamomile plant response rating [1, 13] | Plant response rating, Chamomile [1, 19] | Plant response rating, Oilseed Rape [2, 18] | Plant response rating, Blackgrass [5, 19] | Russian Thistle plant response rating [7, 13] | Plant response rating, Russian Thistle [7, 17] | Plant response rating, Russian Thistle [7, 19] | Pigweed plant response rating [8, 13] | Oat, Wild plant response rating [9, 13] | Plant response rating (scale of 0 to 100), Field Violet ([10]; Preemergence, 31 g ai/ha) | Plant response rating, Field Violet [10, 19]
40: Plant response rating (scale of 0 to 100), Russian Thistle ([7]; Preemergence, 31 g ai/ha)
30: Plant response rating, Oilseed Rape [2, 16]
35: Bromegrass, Downy plant response rating [11, 13]
65: Buckwheat, Wild plant response rating [6, 13] | Plant response rating, Buckwheat, Wild [6, 16] | Speedwell plant response rating [12, 13]
100: Plant response rating, Chamomile [1, 15] | Plant response rating (scale of 0 to 100), Chamomile ([1]; Preemergence, 31 g ai/ha) | Plant response rating, Chamomile [1, 17] | Plant response rating, Chamomile [1, 18] | Galium plant response rating [3, 13] | Plant response rating, Galium [3, 14] | Plant response rating, Galium [3, 15] | Plant response rating, Galium [3, 17] | Plant response rating, Galium [3, 18] | Plant response rating, Galium [3, 19] | Plant response rating, Lambsquarters [4, 16] | Plant response rating, Lambsquarters [4, 17] | Plant response rating, Lambsquarters [4, 18] | Plant response rating, Blackgrass [5, 18] | Plant response rating, Buckwheat, Wild [6, 14] | Plant response rating, Buckwheat, Wild [6, 15] | Plant response rating, Buckwheat, Wild [6, 17] | Plant response rating, Buckwheat, Wild [6, 19] | Plant response rating, Kochia (kochia (Kochia scoparia); [15]) | Plant response rating, Kochia (kochia (Kochia scoparia); [18]) | Plant response rating, Pigweed [8, 14] | Plant response rating, Pigweed [8, 15] | Plant response rating, Pigweed [8, 16] | Plant response rating, Pigweed [8, 17] | Plant response rating, Pigweed [8, 18] | Plant response rating, Oat, Wild [9, 18] | Plant response rating, Field Violet [10, 18] | Plant response rating, Speedwell [12, 14] | Plant response rating, Speedwell [12, 15] | Plant response rating (scale of 0 to 100), Speedwell ([12]; Preemergence, 31 g ai/ha) | Plant response rating, Speedwell [12, 16] | Plant response rating, Speedwell [12, 17] | Plant response rating, Speedwell [12, 18] | Plant response rating, Speedwell [12, 19]
60: Oilseed Rape plant response rating [2, 13] | Plant response rating, Kochia (kochia (Kochia scoparia); [16])
20: Plant response rating (scale of 0 to 100), Oilseed Rape ([2]; Preemergence, 31 g ai/ha) | Plant response rating (scale of 0 to 100), Buckwheat, Wild ([6]; Preemergence, 31 g ai/ha) | Plant response rating (scale of 0 to 100), Kochia (kochia (Kochia scoparia); Preemergence, 31 g ai/ha)
95: Plant response rating, Chamomile [1, 16] | Plant response rating (scale of 0 to 100), Galium ([3]; Preemergence, 31 g ai/ha) | Plant response rating, Galium [3, 16] | Plant response rating, Lambsquarters [4, 15] | Plant response rating (scale of 0 to 100), Lambsquarters ([4]; Preemergence, 31 g ai/ha) | Plant response rating, Blackgrass [5, 17] | Plant response rating, Buckwheat, Wild [6, 18] | Kochia plant response rating (kochia (Kochia scoparia); [13]) | Plant response rating, Kochia (kochia (Kochia scoparia); [14]) | Plant response rating, Kochia (kochia (Kochia scoparia); [17]) | Plant response rating, Kochia (kochia (Kochia scoparia); [19]) | Plant response rating (scale of 0 to 100), Pigweed ([8]; Preemergence, 31 g ai/ha) | Plant response rating, Oat, Wild [9, 14] | Plant response rating, Oat, Wild [9, 17] | Plant response rating, Field Violet [10, 14] | Plant response rating, Field Violet [10, 15] | Plant response rating, Field Violet [10, 17] | Plant response rating, Bromegrass, Downy [11, 18]
90: Plant response rating, Oilseed Rape [2, 15] | Lambsquarters plant response rating [4, 13] | Plant response rating, Lambsquarters [4, 14] | Plant response rating, Blackgrass [5, 16] | Plant response rating, Russian Thistle [7, 18] | Plant response rating (scale of 0 to 100), Oat, Wild ([9]; Preemergence, 31 g ai/ha) | Plant response rating, Oat, Wild [9, 16] | Plant response rating, Oat, Wild [9, 19] | Plant response rating, Field Violet [10, 16] | Plant response rating, Bromegrass, Downy [11, 17]
75: Field Violet plant response rating [10, 13] | Plant response rating (scale of 0 to 100), Bromegrass, Downy ([11]; Preemergence, 31 g ai/ha)
